We go through 28 molecules from ChEMBL document CHEMBL1145498, “A systematic interaction map of validated kinase inhibitors with Ser/Thr kinases” (Proc Natl Acad Sci U S A, 2007).

As usually defined, the IC50 is the concentration that gives 50% inhibition. One may read the ΔTm as the shift of the melting midpoint relative to a reference. One may read the Ki as a measure of affinity in units of concentration, obtained from inhibition or displacement.

The test system of assay [1] is KB. The assay is described as follows: cells. As to conditions: Homo sapiens.
Assay [2] concerns KB. The assay is described as follows: cells. The note with it: Homo sapiens. The source holds these as a separate data set.
In assay [3] the target is Dual specificity protein kinase CLK1 (Homo sapiens) (UniProt P49759).
The target of assay [4] is T1, 3-phosphoinositide-dependent protein kinase 1 (Homo sapiens) (UniProt O15530).
T1 sequence (whole entry): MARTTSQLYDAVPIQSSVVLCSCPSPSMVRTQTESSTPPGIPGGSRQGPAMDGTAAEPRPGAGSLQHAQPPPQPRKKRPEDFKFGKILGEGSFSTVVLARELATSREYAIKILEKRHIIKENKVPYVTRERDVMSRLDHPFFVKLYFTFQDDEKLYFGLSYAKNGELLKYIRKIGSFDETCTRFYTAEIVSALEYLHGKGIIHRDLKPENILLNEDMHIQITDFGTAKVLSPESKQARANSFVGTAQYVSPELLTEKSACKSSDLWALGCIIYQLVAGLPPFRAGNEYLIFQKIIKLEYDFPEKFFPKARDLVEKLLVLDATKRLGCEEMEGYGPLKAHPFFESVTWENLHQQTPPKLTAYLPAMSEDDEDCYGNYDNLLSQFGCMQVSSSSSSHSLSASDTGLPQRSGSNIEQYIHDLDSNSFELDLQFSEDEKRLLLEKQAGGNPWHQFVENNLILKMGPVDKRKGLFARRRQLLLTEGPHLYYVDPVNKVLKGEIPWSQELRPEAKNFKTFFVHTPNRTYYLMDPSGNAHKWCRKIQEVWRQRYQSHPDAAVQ

Assay [5] concerns the target Calcium/calmodulin-dependent protein kinase kinase 2 (Homo sapiens, UniProt Q96RR4). The assay is described as follows: Inhibition of CaM-KKbeta.
Assay [6] has as its target Myosin light chain kinase, smooth muscle (Homo sapiens, UniProt Q15746). The assay is described as follows: Binding affinity at MLCK.
Assay [7] in a line: Binding affinity at PKC.
Assay [8] deals with STE20-like serine/threonine-protein kinase (Homo sapiens) (UniProt Q9H2G2).
Assay [9] deals with T2, Serine/threonine-protein kinase VRK3 (Homo sapiens) (UniProt Q8IV63).
T2 sequence (whole entry): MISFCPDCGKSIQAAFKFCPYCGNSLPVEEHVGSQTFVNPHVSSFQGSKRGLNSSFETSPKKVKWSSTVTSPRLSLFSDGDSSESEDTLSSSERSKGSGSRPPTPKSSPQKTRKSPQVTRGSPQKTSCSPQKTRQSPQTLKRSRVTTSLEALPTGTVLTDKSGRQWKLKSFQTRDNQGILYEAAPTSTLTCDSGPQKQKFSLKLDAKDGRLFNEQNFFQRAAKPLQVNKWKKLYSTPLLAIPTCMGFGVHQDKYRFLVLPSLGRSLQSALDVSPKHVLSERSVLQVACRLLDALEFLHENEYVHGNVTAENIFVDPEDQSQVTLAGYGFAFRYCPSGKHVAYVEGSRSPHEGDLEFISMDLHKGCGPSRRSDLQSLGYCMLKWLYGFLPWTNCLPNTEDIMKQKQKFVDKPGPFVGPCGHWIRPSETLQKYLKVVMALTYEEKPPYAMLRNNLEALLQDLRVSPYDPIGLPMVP

Assay [10] concerns the target Vascular endothelial growth factor receptor 2 (Homo sapiens, UniProt P35968).
Assay [11] can be described thus: Inhibition of Cdk2/cyclin B.
The next assay deals with TGF-beta receptor type-1 (Homo sapiens, UniProt P36897).
Assay [12] is described as follows: Binding affinity at ROCK.
For another assay, the system named is NT2. The assay is described as follows: Inhibition of lysophosphatidic acid-induced MARCKS phosphorylation in human NT2 cells. Format: functional, cell-based.
Assay [13] can be described thus: Binding affinity at PKA.
Assay [14] concerns the target T3, Epidermal growth factor receptor (Homo sapiens, UniProt P00533).
Assay [15] concerns the target Proto-oncogene tyrosine-protein kinase Src (Homo sapiens, UniProt P12931). The assay is described as follows: Inhibition of Src. As to conditions: read-out: IC50.
Assay [16] has as its target Cyclin-dependent kinase 2 (Homo sapiens, UniProt P24941).
Assay [17] has as its target T3, Epidermal growth factor receptor. This is another data set of the same source.

Sequence of STE20-like serine/threonine-protein kinase (Homo sapiens) (Q9H2G2 whole entry, looked up): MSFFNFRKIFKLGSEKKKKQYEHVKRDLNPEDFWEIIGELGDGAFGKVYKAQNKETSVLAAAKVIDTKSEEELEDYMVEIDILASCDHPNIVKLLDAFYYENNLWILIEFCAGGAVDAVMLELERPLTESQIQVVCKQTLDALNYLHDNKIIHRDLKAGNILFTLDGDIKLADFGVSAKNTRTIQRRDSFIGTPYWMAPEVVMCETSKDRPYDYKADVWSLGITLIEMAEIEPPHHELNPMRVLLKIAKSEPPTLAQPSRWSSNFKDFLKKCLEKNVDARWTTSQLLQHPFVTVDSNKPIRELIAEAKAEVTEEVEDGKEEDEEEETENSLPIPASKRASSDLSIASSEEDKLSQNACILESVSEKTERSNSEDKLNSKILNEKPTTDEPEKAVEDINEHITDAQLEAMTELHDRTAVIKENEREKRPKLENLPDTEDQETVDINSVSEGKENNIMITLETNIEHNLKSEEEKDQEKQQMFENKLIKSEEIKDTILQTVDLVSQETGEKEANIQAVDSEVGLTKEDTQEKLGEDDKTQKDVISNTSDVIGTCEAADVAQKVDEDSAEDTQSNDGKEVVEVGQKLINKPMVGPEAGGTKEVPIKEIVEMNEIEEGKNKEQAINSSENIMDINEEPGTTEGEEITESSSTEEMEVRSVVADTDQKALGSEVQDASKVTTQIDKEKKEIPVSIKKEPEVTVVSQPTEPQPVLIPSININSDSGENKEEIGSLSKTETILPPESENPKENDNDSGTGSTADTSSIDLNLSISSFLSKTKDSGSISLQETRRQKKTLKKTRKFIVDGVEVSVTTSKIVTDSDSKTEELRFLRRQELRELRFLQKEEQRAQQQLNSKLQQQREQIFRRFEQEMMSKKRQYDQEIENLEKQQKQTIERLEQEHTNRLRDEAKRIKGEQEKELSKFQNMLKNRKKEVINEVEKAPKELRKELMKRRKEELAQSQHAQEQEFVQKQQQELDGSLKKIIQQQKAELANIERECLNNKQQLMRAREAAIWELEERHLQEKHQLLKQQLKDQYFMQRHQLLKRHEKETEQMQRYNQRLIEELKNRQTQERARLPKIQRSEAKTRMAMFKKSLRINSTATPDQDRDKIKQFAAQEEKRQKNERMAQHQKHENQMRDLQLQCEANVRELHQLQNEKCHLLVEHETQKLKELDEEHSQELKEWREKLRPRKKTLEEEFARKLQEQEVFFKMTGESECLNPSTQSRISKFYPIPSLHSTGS
Sequence of Dual specificity protein kinase CLK1 (Homo sapiens) (P49759 whole entry, looked up): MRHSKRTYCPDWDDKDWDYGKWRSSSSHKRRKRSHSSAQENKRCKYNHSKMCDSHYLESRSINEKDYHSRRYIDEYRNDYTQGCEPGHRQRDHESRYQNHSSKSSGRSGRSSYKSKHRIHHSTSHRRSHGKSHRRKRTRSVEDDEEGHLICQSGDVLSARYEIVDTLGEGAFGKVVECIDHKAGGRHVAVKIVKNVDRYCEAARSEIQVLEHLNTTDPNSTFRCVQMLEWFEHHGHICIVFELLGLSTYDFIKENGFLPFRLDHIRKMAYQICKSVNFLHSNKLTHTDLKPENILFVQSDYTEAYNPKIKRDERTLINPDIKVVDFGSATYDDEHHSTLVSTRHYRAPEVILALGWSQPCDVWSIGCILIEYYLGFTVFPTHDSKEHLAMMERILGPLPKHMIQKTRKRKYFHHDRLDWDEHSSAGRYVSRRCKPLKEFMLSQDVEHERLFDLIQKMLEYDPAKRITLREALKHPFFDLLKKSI
Sequence of Myosin light chain kinase, smooth muscle (Q15746 whole entry): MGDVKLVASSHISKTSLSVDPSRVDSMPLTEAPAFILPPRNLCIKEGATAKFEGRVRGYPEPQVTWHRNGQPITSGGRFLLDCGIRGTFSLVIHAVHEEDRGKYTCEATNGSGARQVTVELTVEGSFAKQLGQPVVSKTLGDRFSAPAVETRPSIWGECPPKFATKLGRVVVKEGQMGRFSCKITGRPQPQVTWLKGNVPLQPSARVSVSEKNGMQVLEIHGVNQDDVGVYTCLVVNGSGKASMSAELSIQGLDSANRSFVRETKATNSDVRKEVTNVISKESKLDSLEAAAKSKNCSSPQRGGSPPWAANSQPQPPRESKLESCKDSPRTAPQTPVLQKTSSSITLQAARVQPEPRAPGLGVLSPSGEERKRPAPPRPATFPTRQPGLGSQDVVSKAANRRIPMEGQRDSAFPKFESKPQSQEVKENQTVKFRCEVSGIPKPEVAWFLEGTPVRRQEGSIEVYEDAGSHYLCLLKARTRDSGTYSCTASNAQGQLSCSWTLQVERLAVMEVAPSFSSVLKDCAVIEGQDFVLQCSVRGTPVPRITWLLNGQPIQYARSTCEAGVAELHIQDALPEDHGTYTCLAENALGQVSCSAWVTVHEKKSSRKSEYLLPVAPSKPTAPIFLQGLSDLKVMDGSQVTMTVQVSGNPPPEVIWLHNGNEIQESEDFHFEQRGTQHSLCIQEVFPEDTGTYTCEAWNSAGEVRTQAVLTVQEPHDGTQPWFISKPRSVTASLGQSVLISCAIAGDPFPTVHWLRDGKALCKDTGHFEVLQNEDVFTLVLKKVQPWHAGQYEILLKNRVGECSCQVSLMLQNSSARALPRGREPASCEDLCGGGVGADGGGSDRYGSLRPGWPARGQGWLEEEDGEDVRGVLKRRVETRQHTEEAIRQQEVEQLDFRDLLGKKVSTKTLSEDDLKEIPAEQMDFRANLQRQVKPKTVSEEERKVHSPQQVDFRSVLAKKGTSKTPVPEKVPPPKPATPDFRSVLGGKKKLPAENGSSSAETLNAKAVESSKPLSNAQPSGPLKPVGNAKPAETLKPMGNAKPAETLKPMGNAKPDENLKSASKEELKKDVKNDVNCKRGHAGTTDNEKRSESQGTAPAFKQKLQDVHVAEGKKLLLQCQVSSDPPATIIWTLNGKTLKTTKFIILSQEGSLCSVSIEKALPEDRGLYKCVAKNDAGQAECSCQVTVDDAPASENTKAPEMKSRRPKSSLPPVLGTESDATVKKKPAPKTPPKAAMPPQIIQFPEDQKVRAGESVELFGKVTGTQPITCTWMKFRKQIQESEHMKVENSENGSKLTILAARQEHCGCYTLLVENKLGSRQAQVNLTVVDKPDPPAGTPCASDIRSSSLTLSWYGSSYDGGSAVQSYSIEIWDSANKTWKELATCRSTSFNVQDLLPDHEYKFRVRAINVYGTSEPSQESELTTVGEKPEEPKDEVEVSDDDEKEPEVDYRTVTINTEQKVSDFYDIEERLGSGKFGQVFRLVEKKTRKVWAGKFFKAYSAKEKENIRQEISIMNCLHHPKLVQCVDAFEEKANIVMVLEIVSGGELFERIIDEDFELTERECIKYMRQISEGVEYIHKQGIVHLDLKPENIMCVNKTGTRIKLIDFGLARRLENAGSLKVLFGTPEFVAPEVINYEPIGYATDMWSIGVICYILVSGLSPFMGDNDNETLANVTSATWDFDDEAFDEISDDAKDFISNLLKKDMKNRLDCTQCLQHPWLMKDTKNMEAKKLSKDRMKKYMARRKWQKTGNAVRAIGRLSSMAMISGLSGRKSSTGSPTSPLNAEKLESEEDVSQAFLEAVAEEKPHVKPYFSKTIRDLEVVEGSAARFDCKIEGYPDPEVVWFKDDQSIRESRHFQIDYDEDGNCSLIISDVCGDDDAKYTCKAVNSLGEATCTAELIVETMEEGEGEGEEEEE
T3 sequence (P00533 whole entry): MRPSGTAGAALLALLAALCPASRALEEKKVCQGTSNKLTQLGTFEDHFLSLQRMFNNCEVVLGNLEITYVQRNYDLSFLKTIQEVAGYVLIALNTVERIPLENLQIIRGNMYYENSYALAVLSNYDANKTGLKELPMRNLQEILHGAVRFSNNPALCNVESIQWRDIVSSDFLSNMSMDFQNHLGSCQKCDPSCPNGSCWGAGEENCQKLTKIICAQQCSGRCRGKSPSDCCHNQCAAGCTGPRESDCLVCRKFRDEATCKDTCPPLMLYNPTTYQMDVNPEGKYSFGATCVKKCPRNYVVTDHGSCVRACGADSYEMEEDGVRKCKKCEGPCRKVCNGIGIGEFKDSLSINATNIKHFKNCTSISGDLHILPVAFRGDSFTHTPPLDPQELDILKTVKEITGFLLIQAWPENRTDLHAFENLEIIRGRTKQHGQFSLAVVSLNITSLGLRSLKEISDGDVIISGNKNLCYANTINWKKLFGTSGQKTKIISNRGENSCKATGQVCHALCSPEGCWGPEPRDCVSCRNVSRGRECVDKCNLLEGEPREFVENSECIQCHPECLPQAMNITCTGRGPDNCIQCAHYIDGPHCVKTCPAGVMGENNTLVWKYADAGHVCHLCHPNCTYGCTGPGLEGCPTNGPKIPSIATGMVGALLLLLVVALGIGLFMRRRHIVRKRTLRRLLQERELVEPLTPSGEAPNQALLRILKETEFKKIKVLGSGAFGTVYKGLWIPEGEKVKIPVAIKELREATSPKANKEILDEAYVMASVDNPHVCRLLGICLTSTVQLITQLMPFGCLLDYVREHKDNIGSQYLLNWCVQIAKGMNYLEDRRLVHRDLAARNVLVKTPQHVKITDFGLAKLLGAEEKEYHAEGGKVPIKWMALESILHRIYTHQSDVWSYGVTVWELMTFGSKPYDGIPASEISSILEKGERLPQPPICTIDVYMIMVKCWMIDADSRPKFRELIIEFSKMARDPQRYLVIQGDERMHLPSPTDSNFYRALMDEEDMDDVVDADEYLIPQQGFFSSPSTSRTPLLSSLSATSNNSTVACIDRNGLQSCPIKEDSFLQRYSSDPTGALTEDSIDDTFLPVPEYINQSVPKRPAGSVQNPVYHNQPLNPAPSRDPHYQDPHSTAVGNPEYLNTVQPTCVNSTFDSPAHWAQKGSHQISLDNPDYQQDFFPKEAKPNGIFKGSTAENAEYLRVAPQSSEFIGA

Regarding `CN1CCC(Nc2ncc3ncnc(Nc4ccc(F)c(Cl)c4)c3n2)CC1` [FALNIDAMOL], the 50% inhibitory concentration (IC50) in the assay with KB [1] was determined as 3200 nM; with KB [2], 1.82 nM. Besides, the ΔTm in assay [3] was found to be 0.5 °C; in [4], 0.1 °C.

As for `O=S(=O)(NCCNC/C=C/c1ccc(Br)cc1)c1cccc2cnccc12`, the results for the Ki in assay [5], in assay [6] and in [7] were 29700 nM, 28300 nM and 31700 nM, respectively. The ΔTm in assay [3] was 1.1 °C; in assay [4] it was -0.7 °C; in assay [8] it was 1.6 °C; in [9], 0.2 °C.

In assay [10], `CC(C)c1cc(/C=C(\C#N)C(=O)NCCCc2ccccc2)cc(C(C)C)c1O` registered a half-inhibitory concentration (IC50) of 700 nM. Besides, the ΔTm in assay [3] was 2.8 °C; in assay [4] it was -0.5 °C; in assay [8] it was 1.2 °C; in assay [9], 0.8 °C.

For `NC1=NC(=O)/C(=C2\CCNC(=O)c3[nH]c(Br)cc32)N1` [HYMENIALDISINE], in [11], the half-maximal inhibitory concentration (IC50) came out at 40 nM. Further, the ΔTm is 9.2 °C in assay [3], -0.2 °C in assay [4], 2.1 °C in [8] and 0.3 °C in assay [9].

In turn, `NC(=O)c1ccc(-c2nc(-c3ccc4c(c3)OCCO4)c(-c3ccccn3)[nH]2)cc1` displayed a concentration for half-maximal inhibition (IC50) on TGF-beta receptor type-1 of 500 nM. The ΔTm was -0.4 °C in assay [3], -0.1 °C in [4], -1.1 °C in [8] and 0.3 °C in assay [9].

For the molecule `Nc1nc(Nc2ccc(S(N)(=O)=O)cc2)nn1C(=S)Nc1c(F)cccc1F`, the ΔTm was 11.5 °C in assay [3], 0.4 °C in assay [4], 12.1 °C in assay [8] and 0.9 °C in assay [9].

In the case of `Cc1cncc2cccc(S(=O)(=O)N3CCCNC[C@@H]3C)c12`, the Ki in [12] is 1.6 nM; in [6], 10100 nM; in assay [7], 9270 nM; in [13] it was 630 nM. This molecule also registered an IC50 with NT2 of 2500 nM. Moreover, the ΔTm was 3 °C in assay [3], -0.2 °C in assay [4], 2.9 °C in [8] and 0.4 °C in assay [9].

Turning to `O=C(O)c1cc(NCc2cc(O)ccc2O)ccc1O`, the ΔTm in assay [3] is 0.1 °C; in [4], 0.2 °C; in assay [8], -0.5 °C; in assay [9] it was 0.1 °C.

Consider `O=c1sn(Cc2ccccc2)c(=S)n1Cc1ccccc1`, for which the ΔTm in assay [3] was 0.2 °C; in [4], 0 °C; in assay [8], 0.4 °C; in assay [9] it was 0.9 °C.

`N#C/C(=C\c1ccc(O)c(O)c1)C(=O)Nc1ccccc1`: the ΔTm in assay [3] is 1 °C; in assay [4], -0.3 °C; in assay [8] it was 1.8 °C; in assay [9] it was 0 °C.

For the molecule `O=c1ccc2ccc(O)c(O)c2o1` [DAPHNETIN], the ΔTm was 0 °C in assay [3], 0 °C in [4], 0.1 °C in [8] and -0.1 °C in assay [9]. Further, the IC50 in assay [14] amounted to 7670 nM.

For `Cn1cc(C2=C(c3cn(CCCSC(=N)N)c4ccccc34)C(=O)NC2=O)c2ccccc21`, the ΔTm came to 9.6 °C in assay [3], 0.1 °C in assay [4], 10.6 °C in [8] and 0.8 °C in [9].

`Ic1cccc(CSc2nnc(-c3ccncc3)o2)c1`: the ΔTm in assay [3] is 1.7 °C; in [4], -0.6 °C; in assay [8] it was -0.4 °C; in assay [9], -0.1 °C.

As for `O=C1Cc2c([nH]c3ccc([N+](=O)[O-])cc23)-c2ccccc2N1`, the thermal shift (ΔTm) was determined as 2.2 °C in [3], 0 °C in [4], 2.1 °C in assay [8] and 0 °C in assay [9].

On to `CN(C)CC1CCn2c(c(C3=C(c4c[nH]c5ccccc45)C(=O)NC3=O)c3ccccc32)C1` (configuration not stated), for which the ΔTm in [3] was 2 °C; in [4], -0.1 °C; in assay [8], 4.2 °C; in assay [9] it was 0.6 °C.

With `CC(C)(C)c1nc2c3ccc(F)cc3c3c(=O)[nH]ccc3c2[nH]1`, the ΔTm in [3] was 4.3 °C; in assay [4], -1.3 °C; in assay [8] it was 1.8 °C; in [9], 0.2 °C.

For `COc1cc2ncnc(Nc3cccc(Br)c3)c2cc1OC`, the shift in melting temperature (ΔTm) in assay [3] was 1.7 °C; in assay [4], 0 °C; in [8], 6.9 °C; in assay [9], 0.3 °C.

`Oc1ccc(-c2nc(-c3ccc(F)cc3)c(-c3ccncc3)[nH]2)cc1`: the ΔTm in assay [3] was 0.8 °C; in [4], -1 °C; in assay [8], 4.4 °C; in assay [9], 0.3 °C.

In the case of `N#C/C(=C1/Nc2ccccc2S1)c1ccnc(NCCc2cccnc2)n1`, the shift in melting temperature (ΔTm) is 5.9 °C in [3], -0.1 °C in [4], 1.8 °C in [8] and 0.9 °C in [9].

For `CC(C)(C)c1cc(C=C2C(=O)C=CC2=O)cc(C(C)(C)C)c1O`, the half-maximal inhibitory concentration (IC50) in assay [15] is 2200 nM. The ΔTm in [3] is 0 °C; in [4], -0.1 °C; in assay [8], 0.9 °C; in [9], -0.2 °C.

On to `O=Nc1c(-c2c(O)[nH]c3ccccc23)[nH]c2ccccc12`, for which the thermal shift (ΔTm) was 4 °C in assay [3], 1.5 °C in assay [4], 3.9 °C in [8] and -0.8 °C in assay [9].

For `O=C1Nc2ccc(I)cc2/C1=C\c1cc(Br)c(O)c(Br)c1`, the ΔTm in assay [3] was 1.3 °C; in assay [4], -1 °C; in assay [8], 2.2 °C; in assay [9], -1.6 °C.

As for `Nc1ncnc2c1c(I)cn2[C@@H]1O[C@H](CO)[C@@H](O)[C@H]1O`, the thermal shift (ΔTm) in assay [3] is 9.5 °C; in assay [4] it was 0 °C; in [8], 4.2 °C; in assay [9], 0.1 °C.

For the molecule `C[C@@H](N)[C@H]1CC[C@H](C(=O)Nc2ccncc2)CC1`, the ΔTm in [3] is 2.1 °C; in assay [4], -0.3 °C; in assay [8] it was 0.2 °C; in [9] it was 0.2 °C.

Turning to `CC(C)n1cnc2c(NCc3ccccc3O)nc(NCCCO)nc21`, the half-inhibitory concentration (IC50) in assay [16] stood at 80 nM. The thermal shift (ΔTm) in assay [3] was 0.9 °C; in [4], 0.1 °C; in assay [8], 0 °C; in [9] it was 0.1 °C.

On to `Nc1nccc(-c2c(-c3ccc(F)cc3)ncn2C2CCNCC2)n1`, for which the ΔTm in assay [3] is 1.3 °C; in assay [4], -0.2 °C; in [8] it was 1.1 °C; in assay [9], 0 °C.

As for `O=C1c2ccccc2-c2n[nH]c3cccc1c23`, the shift in melting temperature (ΔTm) in assay [3] is 4.7 °C; in [4], -0.1 °C; in assay [8], 2.2 °C; in [9], 0.1 °C.

`O=C(O)/C=C/c1cc(CO)ccc1CO` returned an IC50 in assay [17] of 780 nM. Further, the shift in melting temperature (ΔTm) was determined as 0.2 °C in assay [3], 0 °C in [4], 0 °C in assay [8] and 0.2 °C in assay [9].
